Legend:
[1] = target: AmpC P. aeruginosa (Pseudomonas aeruginosa, UniProt P24735); assay: biochemical
Method: Enzyme activity was monitored by spectrophotometric measurement of nitrocefin (NCF-TOKU-E, N005) hydrolysis at 485 nm, at room temperature and in assay buffer A: 100 mM Phosphate pH7, 2% glycerol and 0.1 mg/mL Bovine serum albumin (Sigma, B4287). Enzymes were cloned in E. coli expression vector, expressed and purified in house using classical procedures. To a transparent polystyrene plate (Corning, 3628) were added in each well 5 μL DMSO or inhibitor dilutions in DMSO and 80 μL enzyme in buffer A. Plates were immediately read at 485 nm in a microplate spectrophotometer (BioTek, PowerWave HT) to enable background subtraction. After 30 min of pre-incubation at room temperature, 15 μL of NCF (200 μM final) were finally added in each well. Final enzyme concentrations were 0.1 nM (TEM-1), 0.075 nM (SHV-1), 0.4 nM (CTX-M-15), 1 nM (KPC-2), 0.2 nM (P99 AmpC), 0.2 nM (CMY-37), 0.4 nM (AmpC P. aeruginosa), 0.2 nM (OXA-1), 1.2 nM (OXA-11), 0.4 nM (OXA-15) and 0.3 nM (OXA-48). After 20 min incubation at room temperature, plates were once again read at 485 nm. Enzyme activity was obtained by subtracting the final signal by the background, and was converted to enzyme inhibition using non inhibited wells. IC50 curves were fitted to a classical Langmuir equilibrium model with Hill slope using XLFIT (IDBS).

[2] = target: T1, OXA-15 (Pseudomonas aeruginosa, UniProt Q51574); assay: β-lactamase inhibitory activity, nitrocefin hydrolysis; assay type: biochemical
T1 construct: made in house; host or cells: E. coli
Method: Enzyme activity was monitored by spectrophotometric measurement of nitrocefin (NCF-TOKU-E, N005) hydrolysis at 485 nm, at room temperature and in assay buffer A: 100 mM Phosphate pH7, 2% glycerol and 0.1 mg/mL Bovine serum albumin (Sigma, B4287). […] To a transparent polystyrene plate (Corning, 3628) were added in each well 5 μL DMSO or inhibitor dilutions in DMSO and 80 μL enzyme in buffer A. Plates were immediately read at 485 nm in a microplate spectrophotometer (BioTek, PowerWave HT) to enable background subtraction. After 30 min of pre-incubation at room temperature, 15 μL of NCF (200 μM final) were finally added in each well. Final enzyme concentrations were 0.1 nM (TEM-1), 0.075 nM (SHV-1), 0.4 nM (CTX-M-15), 1 nM (KPC-2), 0.2 nM (P99 AmpC), 0.2 nM (CMY-37), 0.4 nM (AmpC P. aeruginosa), 0.2 nM (OXA-1), 1.2 nM (OXA-11), 0.4 nM (OXA-15) and 0.3 nM (OXA-48). After 20 min incubation at room temperature, plates were once again read at 485 nm. Enzyme activity was obtained by subtracting the final signal by the background, and was converted to enzyme inhibition using non inhibited wells. IC50 curves were fitted to a classical Langmuir equilibrium model with Hill slope using XLFIT (IDBS).

[3] = test system: E. cloacae 260508 (TEM-1, CTX-M-15); assay: MIC broth microdilution, alone and synergy with ceftazidime; settings: for MIC: Enterobacter cloacae, read-out: MIC compounds of the invention alone; for MIC of CAZ in combination with compound at 4 μg/mL: strain 260508, compound fixed at 4 μg/mL
[4] = test system: E. cloacae P99 (AmpC); assay: as above; settings: for MIC: Enterobacter cloacae, read-out: MIC compounds of the invention alone; for MIC of CAZ in combination with compound at 4 μg/mL: strain P99, compound fixed at 4 μg/mL
[5] = test system: C. murliniae 210102 (VIM-4); assay: as above; settings: for MIC: read-out: MIC compounds of the invention alone; for MIC of CAZ in combination with compound at 4 μg/mL: strain 210102, compound fixed at 4 μg/mL
[6] = test system: P. aeruginosa UFR35 (OXA-23); assay: as above; settings: for MIC of CAZ in combination with compound at 4 μg/mL: strain UFR35, compound fixed at 4 μg/mL
[7] = test system: P. aeruginosa UFR90 (derepressed AmpC, OprD−); assay: as above; settings: strain UFR90; compound fixed at 4 μg/mL
[8] = test system: P. aeruginosa UFR92 (derepressed AmpC, OprD−); assay: as above; settings: strain UFR92; compound fixed at 4 μg/mL
[9] = test system: P. aeruginosa UFR47 (VIM-1); assay: MIC broth microdilution, compounds alone; settings: Pseudomonas aeruginosa, read-out: MIC compounds of the invention alone
[10] = test system: P. aeruginosa UFR48 (VIM-2); assay: MIC broth microdilution, compounds alone; settings: Pseudomonas aeruginosa, read-out: MIC compounds of the invention alone
[11] = test system: P. aeruginosa UFR59 (IMP-29); assay: MIC broth microdilution, compounds alone; settings: Pseudomonas aeruginosa, read-out: MIC compounds of the invention alone

T1 sequence (Q51574 22-275): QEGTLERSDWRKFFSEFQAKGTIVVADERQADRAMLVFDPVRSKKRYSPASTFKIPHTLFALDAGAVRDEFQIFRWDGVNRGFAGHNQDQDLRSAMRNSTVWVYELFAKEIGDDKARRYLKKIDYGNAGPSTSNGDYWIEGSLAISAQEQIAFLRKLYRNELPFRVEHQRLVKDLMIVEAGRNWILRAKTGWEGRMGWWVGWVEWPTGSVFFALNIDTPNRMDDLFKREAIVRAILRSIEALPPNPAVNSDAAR
Sequence of AmpC P. aeruginosa (P24735 27-397): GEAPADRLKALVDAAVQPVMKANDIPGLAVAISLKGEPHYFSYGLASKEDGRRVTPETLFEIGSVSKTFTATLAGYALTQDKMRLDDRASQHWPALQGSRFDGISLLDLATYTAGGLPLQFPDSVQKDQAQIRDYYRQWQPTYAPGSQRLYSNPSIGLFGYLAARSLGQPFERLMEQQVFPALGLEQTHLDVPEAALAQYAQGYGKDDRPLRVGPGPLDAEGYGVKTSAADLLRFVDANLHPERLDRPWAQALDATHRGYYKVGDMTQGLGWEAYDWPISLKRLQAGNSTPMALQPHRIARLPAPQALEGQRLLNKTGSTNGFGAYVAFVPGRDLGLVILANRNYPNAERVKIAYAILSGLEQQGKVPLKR

Compound | IC50 [1] [nM] | IC50 [2] [nM] | MIC [3] [µg/mL] | MIC of CAZ in combination with compound at 4 μg/mL [3] [µg/mL] | MIC [4] [µg/mL] | MIC of CAZ in combination with compound at 4 μg/mL [4] [µg/mL] | MIC [5] [µg/mL] | MIC of CAZ in combination with compound at 4 μg/mL [5] [µg/mL] | MIC of CAZ in combination with compound at 4 μg/mL [6] [µg/mL] | MIC of CAZ in combination with compound at 4 μg/mL [7] [µg/mL] | MIC of CAZ in combination with compound at 4 μg/mL [8] [µg/mL] | MIC [9] [µg/mL] | MIC [10] [µg/mL] | MIC [11] [µg/mL] | MIC ([6]; Pseudomonas aeruginosa, read-out: MIC compounds of the invention alone) [µg/mL]
Cn1c2c(sc1=O)C1CN(C2)C(=O)N1OS(=O)(=O)[O-].[Na+] (centres unmarked) [Example 1, Sodium (5-methyl-4,9-dioxo-3-thia-5,8,10-triaza-tricyclo[6.2.1.0^2.6]undec-2(6)-en-10-yl) sulfate] | 190 | 250 | 4 | <0.25 | 8 | 0.5 | 32 | >128 | 4 | 64 | 32 | – | – | – | –
COC(=O)Cn1c2c(sc1=O)C1CN(C2)C(=O)N1OS(=O)(=O)[O-].[Na+] (centres unmarked) [Example 2, Sodium [5-(2-methoxy-2-oxo-ethyl)-4,9-dioxo-3-thia-5,8,10-triaza-tricyclo[6.2.1.0^2.6]undec-2(6)-en-10-yl] sulfate] | 220 | 57 | 4 | <0.25 | 16 | 4 | 16 | – | – | – | – | – | – | – | –
NCCn1c2c(sc1=O)C1CN(C2)C(=O)N1OS(=O)(=O)[O-].[Na+] (centres unmarked) [Example 4, Sodium and 2,2,2-trifluoroacetate [5-(2-azaniumethyl)-4,9-dioxo-3-thia-5,8,10-triaza-tricyclo[6.2.1.0^2.6]undec-2(6)-en-10-yl] sulfate] | 1200 | 300 | 8 | <0.25 | 0.5 | <0.25 | 4 | <0.25 | 2 | 1 | ≤0.25 | 16 | 8 | 8 | 8
O=C1N2Cc3c(sc(=O)n3CCO)C(C2)N1OS(=O)(=O)[O-].[Na+] (centres unmarked) [Example 5, Sodium [5-(2-hydroxyethyl)-4,9-dioxo-3-thia-5,8,10-triaza-tricyclo[6.2.1.0^2.6]undec-2(6)-en-10-yl) sulfate] | 370 | 190 | 4 | <0.25 | 8 | 0.25 | 8 | 64 | – | – | – | – | – | – | –
